Measurements published in patent US20250311727A1, “SUBSTITUTED 2-AMINOAZINES AND SALTS THEREOF, AND USE THEREOF AS HERBICIDAL ACTIVE SUBSTANCES” (BAYER AKTIENGESELLSCHAFT, priority 2022, published 2025).

Tests used:
Assay type in all cases: in vivo
[1] = test system: Veronica persica; test: Post-emergence herbicidal efficacy at 80 g/ha, VERPE; conditions: rated visually after about 3 weeks vs untreated controls, 100% = plants have died
Procedure, shortened: (§1)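 Visual rating against untreated plants, about 3 weeks after treatment, on a 0–100% scale where 100% means dead plants. Compounds were formulated as WP or EC with 0.5% additive and applied at 600 l/ha water onto one-leaf-stage greenhouse weeds, sown 2–3 weeks earlier in sandy loam.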

[2] = test system: Digitaria sanguinalis; test: Pre-emergence herbicide efficacy at 320 g/ha, DIGSA; conditions: scored visually after about 3 weeks vs untreated controls, 100% = plants have died
Procedure, shortened: (§2)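 Visual scores, given as percent of untreated controls (0% = no effect, 100% = dead plants), were taken about 3 weeks after treatment under greenhouse conditions. Treatment was a pre-emergence soil-surface application of WP or EC formulation at 320 g/ha, made up in 600 L/ha water plus 0.5% additive, over seeds covered in sandy loam.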

[3] = test system: Echinochloa crus-galli; test: Post-emergence herbicidal efficacy at 320 g/ha, ECHCG; conditions: rated visually after about 3 weeks vs untreated controls, 100% = plants have died
Procedure, shortened: (§3)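 One-leaf-stage weeds, sandy loam pots, greenhouse; foliar spray of WP/EC, 0.5% additive, 600 L/ha water; visual rating at ~3 wk, 0–100% vs untreated.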

[4] = test system: Matricaria inodora; test: Pre-emergence herbicide efficacy at 320 g/ha, MATIN; conditions: scored visually after about 3 weeks vs untreated controls, 100% = plants have died
Procedure, shortened: as §2

[5] = test system: Echinochloa crus-galli; test: Pre-emergence herbicide efficacy at 320 g/ha, ECHCG; conditions: scored visually after about 3 weeks vs untreated controls, 100% = plants have died
Procedure, shortened: as §2

[6] = test system: Alopecurus myosuroides; test: Post-emergence herbicidal efficacy at 320 g/ha, ALOMY; conditions: rated visually after about 3 weeks vs untreated controls, 100% = plants have died
Text: (§4) Unwanted plants/weeds: • ABUTH: Abutilon theophrasti • ALOMY: Alopecurus myosuroides • AMARE: Amaranthus retroflexus • DIGSA: Digitaria sanguinalis • ECHCG: Echinochloa crus-galli • KCHSC: Kochia scoparia • LOLRI: Lolium rigidum • MATIN: Matricaria inodora • POAAN: Poa annua • POLCO: Polygonum convolvulus • SETVI: Setaria viridis • STEME: Stellaria media • VERPE: Veronica persica • VIOTR: Viola tricolor A. Post-Emergence Herbicidal Efficacy at 320 g/ha
Seeds of mono- and dicotyledonous weed plants were placed in plastic pots in sandy loam soil (doubly sown with in each case one species of mono- or dicotyledonous weed plants per pot), covered with soil and cultivated in a greenhouse under controlled growth conditions. 2 to 3 weeks after sowing, the test plants were treated at the one-leaf stage. The compounds of the invention, formulated in the form of wettable powders (WP) or as emulsion concentrates (EC), were applied to the green parts of the plants as aqueous suspension or emulsion with addition of 0.5% additive at a water application rate equivalent to 600 litres per hectare. After the test plants had been kept in the greenhouse under optimum growth conditions for about 3 weeks, the activity of the preparations was rated visually in comparison to untreated controls.
(§5) For example, 100% activity=the plants have died, 0% activity=like control plants.
Tables A1 to A10 below show the effects of selected compounds of the general formula (I) according to Table 1 on various harmful plants and at an application rate corresponding to 320 g/ha, which were obtained by the trial procedure specified above.

[7] = test system: Digitaria sanguinalis; test: Post-emergence herbicidal efficacy at 320 g/ha, DIGSA; conditions: rated visually after about 3 weeks vs untreated controls, 100% = plants have died
Procedure, shortened: as §3

[8] = test system: Stellaria media; test: Post-emergence herbicidal efficacy at 320 g/ha, STEME; conditions: rated visually after about 3 weeks vs untreated controls, 100% = plants have died
Procedure, shortened: as §3

[9] = test system: Amaranthus retroflexus; test: Pre-emergence herbicide efficacy at 320 g/ha, AMARE; conditions: scored visually after about 3 weeks vs untreated controls, 100% = plants have died
Procedure, shortened: as §2

[10] = test system: Alopecurus myosuroides; test: Post-emergence herbicidal efficacy at 80 g/ha, ALOMY; conditions: rated visually after about 3 weeks vs untreated controls, 100% = plants have died
Text: as §4
(§6) Seeds of monocotyledonous and dicotyledonous weeds and crop plants were placed in sandy loam in plastic or organic planting pots, covered with soil and cultivated in a greenhouse under controlled growth conditions. 2 to 3 weeks after sowing, the test plants were treated at the one-leaf stage. The compounds of the invention, formulated in the form of wettable powders (WP) or as emulsion concentrates (EC), were then sprayed onto the green parts of the plants as aqueous suspension or emulsion with addition of 0.5% additive at a water application rate of 600 l/ha (converted). After the test plants had been kept in the greenhouse under optimum growth conditions for about 3 weeks, the activity of the preparations was rated visually in comparison to untreated controls. For example, 100% activity=the plants have died, 0% activity=like control plants.
(§7) Tables B1 to B11 below show the effects of selected compounds of the general formula (I) according to Table 1 on various harmful plants and an application rate corresponding to 80 g/ha, which were obtained by the experimental procedure mentioned above.

[11] = test system: Veronica persica; test: Pre-emergence herbicide efficacy at 320 g/ha, VERPE; conditions: scored visually after about 3 weeks vs untreated controls, 100% = plants have died
Procedure, shortened: as §2

[12] = test system: Kochia scoparia; test: Pre-emergence herbicide efficacy at 320 g/ha, KCHSC; conditions: scored visually after about 3 weeks vs untreated controls, 100% = plants have died
Procedure, shortened: as §2

[13] = test system: Poa annua; test: Pre-emergence herbicide efficacy at 320 g/ha, POAAN; conditions: scored visually after about 3 weeks vs untreated controls, 100% = plants have died
Procedure, shortened: as §2

[14] = test system: Digitaria sanguinalis; test: Post-emergence herbicidal efficacy at 80 g/ha, DIGSA; conditions: rated visually after about 3 weeks vs untreated controls, 100% = plants have died
Text: as §4, §6, §7

[15] = test system: Echinochloa crus-galli; test: Pre-emergence herbicide efficacy at 80 g/ha, ECHCG; conditions: scored visually after about 3 weeks vs untreated controls, 100% = plants have died
Text: as §4
(§8) Seeds of monocotyledonous and dicotyledonous weed plants and crop plants were placed in plastic or organic planting pots and covered with soil. The compounds of the invention, formulated in the form of wettable powders (WP) or as emulsion concentrates (EC), were then applied to the surface of the covering soil as aqueous suspension or emulsion with addition of 0.5% additive at a water application rate equivalent to 600 l/ha. After the treatment, the pots were placed in a greenhouse and kept under good growth conditions for the test plants. After about 3 weeks, the efficacy of the preparations was scored visually in comparison with untreated controls as percentages. For example, 100% activity=the plants have died, 0% activity=like control plants.
(§9) Tables D1 to D12 below show the effects of selected compounds of the general formula (I) according to Table 1 on various harmful plants and an application rate corresponding to 80 g/ha, which were obtained by the experimental procedure mentioned above.

[16] = test system: Viola tricolor; test: Post-emergence herbicidal efficacy at 80 g/ha, VIOTR; conditions: rated visually after about 3 weeks vs untreated controls, 100% = plants have died
Text: as §4, §6, §7

[17] = test system: Digitaria sanguinalis; test: Pre-emergence herbicide efficacy at 80 g/ha, DIGSA; conditions: scored visually after about 3 weeks vs untreated controls, 100% = plants have died
Procedure, shortened: (§10)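 Visual % activity scored after roughly 3 weeks in the greenhouse against untreated pots, 100% meaning dead plants and 0% like controls. Treatment was soil-surface application right after sowing, at 80 g/ha. Formulated as WP or EC in water at 600 l/ha with 0.5% additive.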

[18] = test system: Kochia scoparia; test: Post-emergence herbicidal efficacy at 320 g/ha, KCHSC; conditions: rated visually after about 3 weeks vs untreated controls, 100% = plants have died
Procedure, shortened: as §3

[19] = test system: Setaria viridis; test: Post-emergence herbicidal efficacy at 320 g/ha, SETVI; conditions: rated visually after about 3 weeks vs untreated controls, 100% = plants have died
Procedure, shortened: as §3

[20] = test system: Abutilon theophrasti; test: Pre-emergence herbicide efficacy at 320 g/ha, ABUTH; conditions: scored visually after about 3 weeks vs untreated controls, 100% = plants have died
Procedure, shortened: as §2

[21] = test system: Abutilon theophrasti; test: Pre-emergence herbicide efficacy at 80 g/ha, ABUTH; conditions: scored visually after about 3 weeks vs untreated controls, 100% = plants have died
Text: as §4, §8, §9

[22] = test system: Veronica persica; test: Post-emergence herbicidal efficacy at 320 g/ha, VERPE; conditions: rated visually after about 3 weeks vs untreated controls, 100% = plants have died
Procedure, shortened: as §3

[23] = test system: Viola tricolor; test: Pre-emergence herbicide efficacy at 80 g/ha, VIOTR
Procedure, shortened: as §10

[24] = test system: Poa annua; test: Post-emergence herbicidal efficacy at 320 g/ha, POAAN; conditions: rated visually after about 3 weeks vs untreated controls, 100% = plants have died
Procedure, shortened: as §3

[25] = test system: Veronica persica; test: Pre-emergence herbicide efficacy at 80 g/ha, VERPE
Text: as §4, §8, §9

[26] = test system: Alopecurus myosuroides; test: Pre-emergence herbicide efficacy at 80 g/ha, ALOMY; conditions: scored visually after about 3 weeks vs untreated controls, 100% = plants have died
Text: as §4, §8, §9

[27] = test system: Setaria viridis; test: Pre-emergence herbicide efficacy at 80 g/ha, SETVI
Procedure, shortened: as §10

[28] = test system: Stellaria media; test: Pre-emergence herbicide efficacy at 320 g/ha, STEME; conditions: scored visually after about 3 weeks vs untreated controls, 100% = plants have died
Procedure, shortened: as §2

[29] = test system: Amaranthus retroflexus; test: Post-emergence herbicidal efficacy at 80 g/ha, AMARE; conditions: rated visually after about 3 weeks vs untreated controls, 100% = plants have died
Procedure, shortened: as §1

[30] = test system: Alopecurus myosuroides; test: Pre-emergence herbicide efficacy at 320 g/ha, ALOMY; conditions: scored visually after about 3 weeks vs untreated controls, 100% = plants have died
Text: as §4
Seeds of mono- and dicotyledonous weed plants were placed in plastic pots in sandy loam soil (doubly sown with one species each of mono- or dicotyledonous weed plants per pot) and covered with soil. The compounds of the invention, formulated in the form of wettable powders (WP) or as emulsion concentrates (EC), were then applied to the surface of the covering soil as aqueous suspension or emulsion with addition of 0.5% additive at a water application rate of 600 litres per hectare (converted). After the treatment, the pots were placed in a greenhouse and kept under good growth conditions for the test plants. After about 3 weeks, the efficacy of the preparations was scored visually in comparison with untreated controls as percentages.
as §5
Tables C1 to C12 below show the effects of selected compounds of the general formula (I) according to Table 1 on various harmful plants and at an application rate corresponding to 320 g/ha, which were obtained by the trial procedure specified above.

[31] = test system: Amaranthus retroflexus; test: Pre-emergence herbicide efficacy at 80 g/ha, AMARE; conditions: scored visually after about 3 weeks vs untreated controls, 100% = plants have died
Procedure, shortened: as §10

[32] = test system: Amaranthus retroflexus; test: Post-emergence herbicidal efficacy at 320 g/ha, AMARE; conditions: rated visually after about 3 weeks vs untreated controls, 100% = plants have died
Procedure, shortened: as §3

[33] = test system: Polygonum convolvulus; test: Pre-emergence herbicide efficacy at 80 g/ha, POLCO; conditions: scored visually after about 3 weeks vs untreated controls, 100% = plants have died
Text: as §4, §8, §9

[34] = test system: Setaria viridis; test: Pre-emergence herbicide efficacy at 320 g/ha, SETVI; conditions: scored visually after about 3 weeks vs untreated controls, 100% = plants have died
Procedure, shortened: as §2

Fc1cnc(Nc2cccc(F)c2-c2cc(C(F)F)no2)nc1 [Example 1-34]
Post-emergence efficacy at 80 g/ha against VERPE in % [1]: 100%
Pre-emergence efficacy at 320 g/ha against DIGSA in % [2]: 100%
Post-emergence efficacy at 320 g/ha against ECHCG in % [3]: 100%
Pre-emergence efficacy at 320 g/ha against MATIN in % [4]: 100%
Pre-emergence efficacy at 320 g/ha against ECHCG in % [5]: 100%
Post-emergence efficacy at 320 g/ha against ALOMY in % [6]: 100%
Post-emergence efficacy at 320 g/ha against DIGSA in % [7]: 100%
Post-emergence efficacy at 320 g/ha against STEME in % [8]: 100%
Pre-emergence efficacy at 320 g/ha against AMARE in % [9]: 100%
Post-emergence efficacy at 80 g/ha against ALOMY in % [10]: 100%
Pre-emergence efficacy at 320 g/ha against VERPE in % [11]: 100%
Pre-emergence efficacy at 320 g/ha against KCHSC in % [12]: 100%
Pre-emergence efficacy at 320 g/ha against POAAN in % [13]: 100%
Post-emergence efficacy at 80 g/ha against DIGSA in % [14]: 80%
Pre-emergence efficacy at 80 g/ha against ECHCG in % [15]: 90%
Post-emergence efficacy at 80 g/ha against VIOTR in % [16]: 80%
Pre-emergence efficacy at 80 g/ha against DIGSA in % [17]: 100%
Post-emergence efficacy at 320 g/ha against KCHSC in % [18]: 100%
Post-emergence efficacy at 320 g/ha against SETVI in % [19]: 90%
Pre-emergence efficacy at 320 g/ha against ABUTH in % [20]: 100%
Pre-emergence efficacy at 80 g/ha against ABUTH in % [21]: 90%
Post-emergence efficacy at 320 g/ha against VERPE in % [22]: 100%
Pre-emergence efficacy against VIOTR [23]: 100%
Post-emergence efficacy at 320 g/ha against POAAN in % [24]: 100%
Pre-emergence efficacy against VERPE [25]: 100%
Pre-emergence efficacy at 80 g/ha against ALOMY in % [26]: 90%
Pre-emergence efficacy against SETVI [27]: 100%
Pre-emergence efficacy at 320 g/ha against STEME in % [28]: 100%
Post-emergence efficacy at 80 g/ha against AMARE in % [29]: 100%
Pre-emergence efficacy at 320 g/ha against ALOMY in % [30]: 100%
Pre-emergence efficacy at 80 g/ha against AMARE in % [31]: 100%
Post-emergence efficacy at 320 g/ha against AMARE in % [32]: 100%
Pre-emergence efficacy at 80 g/ha against POLCO in % [33]: 90%
Pre-emergence efficacy at 320 g/ha against SETVI in % [34]: 100%
